Experiment in all cases: DTP human tumour cell line panel, 48 h
Experiment [1] has as its system U251 CNS.
In experiment [2] the test system is SK-MEL-28 melanoma.
In experiment [3] the test system is MALME-3M melanoma.
Experiment [4] has as its system HOP-62 NSCLC.
Experiment [5] relates to EKVX NSCLC.
The test system of experiment [6] is HCT-116 colon.
Experiment [7] concerns SF-295 CNS.
For experiment [8], the system named is OVCAR-5 ovarian.
The test system of experiment [9] is OVCAR-3 ovarian.
Experiment [10] has as its system M14 melanoma.
Experiment [11] has as its system ACHN renal.
In experiment [12] the test system is UACC-257 melanoma.
In experiment [13] the test system is COLO 205 colon.
Experiment [14] has as its system SNB-19 CNS.
Experiment [15] relates to UACC-62 melanoma.
For experiment [16], the system named is SF-268 CNS.
The test system of experiment [17] is CAKI-1 renal.
Experiment [18] concerns RXF 393 renal.
Experiment [19] deals with SNB-75 CNS.

The results in this text go back to PubChem BioAssay (NCI).

The structures appear in SMILES notation.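 Step 1: Grow cells in 96-well plates. Step 2: Expose to compound for 48 hours at 5 concentrations. Step 3: Interpolate endpoints linearly; if unreached, use highest concentration. TGI: concentration producing complete growth inhibition.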

The TGI is the concentration giving total growth inhibition. Consider `Cn1c(=O)cc(NNc2ccc(Br)cc2)[nH]c1=O`, for which the total growth inhibition concentration (TGI) was 10 µM in experiment [1]; 34.7 µM in experiment [2]; 31.4 µM in experiment [3]; 29.5 µM in experiment [4]; 37.5 µM in experiment [5]; 29.3 µM in [6]. Further, the concentration for total growth inhibition (TGI) in experiment [7] stood at 26.2 µM; in [8], 26.2 µM; in [9] it was 14.7 µM; in [10] it was 33.4 µM; in [11] it was 29.9 µM; in experiment [12] it was 29.1 µM. For the same molecule, the TGI was found to be 13.7 µM in [13] and 26.5 µM in experiment [14].
For `OC(c1ccc(F)cc1)C(F)(F)c1nc(-c2ccccc2)no1` (centres undefined), the concentration for total growth inhibition (TGI) was 29.2 µM in [1]; over 100 µM in [2]; 35 µM in experiment [3]; 37.7 µM in experiment [15]; 63.7 µM in experiment [5]; 36.7 µM in experiment [6]. Besides, the TGI in experiment [16] came out at 62.9 µM; in [8] it was 35.6 µM; in [17], 72.1 µM; in experiment [9] it was 30.6 µM; in experiment [10] it was 32.7 µM; in experiment [11], 67.2 µM. Also, the values for the TGI in experiment [12] and in [14] were 43.4 µM and 64.2 µM, respectively.
In the case of `COc1cc2c(c(N)c1OC)C(=O)/C(=C/c1cc(C)c(O)c(C)c1)C2`, the concentration for total growth inhibition (TGI) in experiment [1] is over 45.5 µM; in [2], over 100 µM; in [18] it was over 100 µM; in [15] it was over 100 µM; in experiment [4], over 60.2 µM; in [5], over 100 µM. For the same molecule, the concentration for total growth inhibition (TGI) in [6] is 2.24 µM; in experiment [16], over 100 µM; in [7] it was over 55.6 µM; in experiment [8], over 100 µM; in experiment [17], over 100 µM; in [10] it was over 100 µM. Besides, the total growth inhibition concentration (TGI) was over 100 µM in experiment [11], over 100 µM in experiment [12], over 52.2 µM in [13] and over 100 µM in [14].
On to `Nc1ncnc2c1ncn2[C@@H]1C[C@H]1CO`, for which the total growth inhibition concentration (TGI) in experiment [1], in experiment [3], in [4], in experiment [5], in experiment [6] and in experiment [7] was over 100 µM each time. Besides, the total growth inhibition concentration (TGI) in experiment [8], in [9], in experiment [10], in experiment [11], in experiment [12] and in experiment [14] was over 100 µM each time.
Regarding `C[C@H](CCC(=O)O[C@@H]1CC[C@@]2(C)C(CC[C@H]3[C@@H]4CC[C@H]([C@H](C)CCc5nc6ccccc6[nH]5)[C@@]4(C)CC[C@@H]32)C1)[C@H]1CC[C@H]2[C@@H]3CCC4C[C@H](O)CC[C@]4(C)[C@H]3CC[C@]12C` (some centres undefined), the TGI in experiment [1], in experiment [2], in experiment [18], in experiment [15], in experiment [4] and in experiment [5] was over 100 µM in each case. Besides, the TGI in experiment [6], in experiment [16], in [7], in experiment [19], in experiment [8] and in [17] was over 100 µM in each case. The concentration for total growth inhibition (TGI) in experiment [9] was over 100 µM; in experiment [10], over 100 µM; in experiment [11], over 100 µM; in experiment [12], over 100 µM; in [13], over 100 µM; in experiment [14], 61.2 µM.
`SC[C@@H]1COC[C@H](CS)S1`: the concentration for total growth inhibition (TGI) in experiment [1], in experiment [2], in experiment [15], in [4], in experiment [5] and in [6] was over 100 µM in each case. The concentration for total growth inhibition (TGI) in experiment [16], in experiment [7], in [19], in [8], in experiment [9] and in experiment [10] was over 100 µM throughout. Moreover, the TGI in [12], in experiment [13] and in experiment [14] was over 100 µM throughout.
With `COCC[N+](CCNC(=O)c1cccc2c(N)c3cccc(C)c3nc12)(CCOC)Cc1ccc([N+](=O)[O-])cc1`, the concentration for total growth inhibition (TGI) is over 100 µM in experiment [1]; 52 µM in experiment [2]; 42.5 µM in [15]; over 100 µM in [4]; 67.3 µM in [5]; 58 µM in experiment [6]. The TGI in [16] was 87.5 µM; in [7], over 100 µM; in experiment [19] it was 61.7 µM; in experiment [8] it was over 100 µM; in [17], over 100 µM; in [9] it was 99.1 µM. Also, the concentration for total growth inhibition (TGI) is over 100 µM in experiment [10]; over 100 µM in [11]; 46 µM in [12]; 43 µM in [13]; over 100 µM in experiment [14].
Consider `COC(=O)[C@@]12CC[C@]1(C(=O)OC)C1C(C)=CC(=O)O[C@@]12C` (some centres undefined), for which the TGI in experiment [1], in [2], in experiment [3], in experiment [18], in experiment [15] and in experiment [4] was over 100 µM in each case. For the same molecule, the TGI in [5], in experiment [6], in experiment [16], in experiment [7], in experiment [19] and in experiment [8] was over 100 µM each time. Also, the TGI in experiment [9], in experiment [10], in experiment [11], in experiment [12], in experiment [13] and in [14] was over 100 µM throughout.
`CCCCCCc1cc2cc(C(=O)Nc3ccccc3F)c(=N)oc2cc1O`: the TGI in [1] is 17.9 µM; in [2] it was 56.8 µM; in experiment [3], 57.6 µM; in experiment [15] it was 36.1 µM; in [4], 31.8 µM; in [5] it was 32.3 µM. For the same molecule, the TGI in experiment [6] stood at 20.6 µM; in experiment [16] it was 59.9 µM; in experiment [7], 33 µM; in experiment [8] it was 50.9 µM; in [17] it was 22.9 µM; in [9], 25.9 µM. The TGI was 28.7 µM in experiment [10]; 25.6 µM in experiment [11]; 42.2 µM in experiment [12]; 39.3 µM in experiment [13]; 56.2 µM in experiment [14].
`C/C(O)=C(/C=N\C(=S)Nc1ccc(Cl)c(Cl)c1)C(=O)Nc1ccccc1C`: the total growth inhibition concentration (TGI) is over 100 µM in [1]; over 100 µM in experiment [2]; over 100 µM in experiment [18]; 49.8 µM in experiment [15]; over 100 µM in experiment [4]; over 100 µM in [5]. The concentration for total growth inhibition (TGI) in [6] was over 100 µM; in [16], over 100 µM; in experiment [7] it was over 100 µM; in experiment [19], 66.3 µM; in [8], over 100 µM; in experiment [17], 95.7 µM. The TGI in [9] was over 100 µM; in experiment [10] it was over 100 µM; in experiment [11], over 100 µM; in experiment [12], over 100 µM; in [13], over 100 µM; in [14], 84.2 µM.
Consider `COc1cc(COC(=O)N2CCCCC2C(=O)O)c([N+](=O)[O-])cc1OC` (centres undefined), for which the TGI in experiment [1], in [2], in experiment [3], in experiment [18], in [15] and in experiment [4] was over 100 µM throughout. The TGI in [5], in experiment [6], in experiment [16], in experiment [7], in experiment [19] and in experiment [8] was over 100 µM throughout. The concentration for total growth inhibition (TGI) in experiment [9], in experiment [10], in experiment [11], in experiment [12], in experiment [13] and in experiment [14] was over 100 µM in each case.
Regarding `CCOC(=O)C1(Cc2ccccc2)Cc2cc3c(cc2C1=O)CCC3` (centres undefined), the concentration for total growth inhibition (TGI) in [1], in experiment [2], in [3], in [18], in experiment [15] and in [4] was over 100 µM throughout. Further, the TGI in experiment [5], in experiment [6], in experiment [16], in experiment [7], in experiment [19] and in experiment [8] was over 100 µM in each case. Besides, the total growth inhibition concentration (TGI) in [9], in experiment [10], in experiment [11], in experiment [12], in experiment [13] and in experiment [14] was over 100 µM each time.
On to `O=c1[nH]c(=O)n(C2CC(O)C(COP(=O)(O)OC3CC(n4cc(F)c(=O)[nH]c4=O)OC3COP(=O)(O)OC3CC(n4cc(F)c(=O)[nH]c4=O)OC3COP(=O)(O)OC3CC(n4cc(F)c(=O)[nH]c4=O)OC3COP(=O)(O)OC3CC(n4cc(F)c(=O)[nH]c4=O)OC3COP(=O)(O)OC3CC(n4cc(F)c(=O)[nH]c4=O)OC3COP(=O)(O)OC3CC(n4cc(F)c(=O)[nH]c4=O)OC3COP(=O)(O)OC3CC(n4cc(F)c(=O)[nH]c4=O)OC3COP(=O)(O)OC3CC(n4cc(F)c(=O)[nH]c4=O)OC3COP(=O)(O)OC3CC(n4cc(F)c(=O)[nH]c4=O)OC3CO)O2)cc1F` (centres undefined), for which the total growth inhibition concentration (TGI) in experiment [1], in experiment [2], in experiment [18], in experiment [4], in experiment [5] and in [6] was over 50 µM throughout. The TGI in experiment [16] was over 50 µM; in experiment [7], over 10 µM; in experiment [19], over 50 µM; in [8] it was over 50 µM; in [17], over 50 µM; in experiment [10] it was over 50 µM. In addition, the TGI in experiment [11], in [12], in experiment [13] and in experiment [14] was over 50 µM in each case.
For the molecule `O=C(Cn1c(C(=O)/C=C/c2ccco2)nc2ccccc21)c1ccc(Cl)cc1`, the concentration for total growth inhibition (TGI) in experiment [1] is over 100 µM; in experiment [2], over 100 µM; in experiment [3], 40.2 µM; in experiment [18] it was over 100 µM; in [15] it was over 100 µM; in [4] it was over 100 µM. In addition, the concentration for total growth inhibition (TGI) is 39.9 µM in experiment [6]; 58.6 µM in [16]; over 100 µM in [19]; over 100 µM in experiment [8]; over 100 µM in experiment [9]; 58.2 µM in [10]. For the same molecule, the TGI in [11] was over 100 µM; in experiment [12] it was 51.9 µM; in experiment [13], 49.2 µM; in experiment [14], over 100 µM.
Take `O=C(O)Cn1nnc2c(=O)[nH][nH]c(=O)c21`: the concentration for total growth inhibition (TGI) in experiment [1], in [2], in experiment [3], in experiment [4], in [5] and in experiment [6] was over 100 µM each time. For the same molecule, the TGI in experiment [7], in experiment [8], in experiment [17], in experiment [9], in experiment [10] and in experiment [11] was over 100 µM each time. The TGI in experiment [12], in experiment [13] and in experiment [14] was over 100 µM in each case.
Take `C=CC1(c2ccc3ccccc3c2)OCC(CC)(CC)CO1`: the TGI is 42 µM in [1]; over 100 µM in experiment [2]; 49.1 µM in experiment [3]; 36.2 µM in experiment [18]; 46 µM in experiment [15]; 84.4 µM in experiment [4]. In addition, the TGI was 43.2 µM in experiment [6]; 95.6 µM in experiment [16]; 65.2 µM in experiment [7]; 96.1 µM in [19]; 38.5 µM in experiment [8]; 51.5 µM in experiment [9]. Besides, the concentration for total growth inhibition (TGI) in experiment [10] is 60.6 µM; in experiment [11], 38.8 µM; in [12], 64.2 µM; in [13] it was 31.8 µM; in experiment [14], 36.3 µM.
